Test results taken from US20040092495A1, “Biguanide derivatives” (priority 2001, published 2004).

Legend:
[1] = tested on: perfused leg of N5STZ rats; experiment: Sorption of glucose on the perfused leg of N5STZ rats in absence of insulin; type: in vivo; conditions: perfused back leg of N5STZ rats; for sorption of glucose: compound 10 μg/mL, 8 mmol/L glucose, n = 4
N5STZ rats = experiment: Antidiabetic activity in N5STZ rats (oral, change in glycaemia); type: in vivo; conditions: four days of treatment, N5STZ diabetic rats, blood sample two hours after final administration
Method: Study of the Antidiabetic Activity in N5STZ Rats
The oral antidiabetic activity of the compounds of the formula (I) was determined on an experimental model of non-insulin-dependent diabetes induced in the rats using steptozotocin.
The model of non-insulin-dependent diabetes is obtained in the rats by means of an injection of steptozotocin on the 5th day after birth.
The diabetic rats used are eight weeks old. The animals are housed, from the day of birth to the day of the experiment, in an animal house at a regulated temperature of 21 to 22° C. and subjected to a fixed cycle of light (from 7 a.m. to 7 p.m.) and darkness (from 7 p.m. to 7 a.m.). Their food consisted of a maintenance diet, and water and food were given “ad libitum”, with the exception of fasting two hours before the tests, during which period the food is removed (post-absorptive state).
The rats are treated orally with the test product for four (D4) days. Two hours after the final administration of the product and 30 minutes after the animals have been anaesthetised with pentobarbital sodium (Nembutal®), a 300 μl blood sample is taken from the end of the tail.
By way of example, results obtained with compound 1 prepared above are collated compared with metformin in the following table.

Compound	sorption of glucose [1]	percentage change in the glycaemia on D4 relative to DO (N5STZ rats; 25 mg/kg) [%]	percentage change in the glycaemia on D4 relative to DO (N5STZ rats; 50 mg/kg) [%]	percentage change in the glycaemia on D4 relative to DO (N5STZ rats; 100 mg/kg) [%]	induction of sorption of glucose by the muscle in absence of insulin (in words) [1]
CN(C)C(=N)NC(=N)N1CCCC1.Cl [Compound 1, Dimethylaminoiminomethylpyrrolidinecarboximidamide Hydrochloride]	116.08 ± 20.63 (n = 4) μmol/g/l	−6	−23	−36	–
CN(C)C(=N)N=C(N)N [Metformin, metformin]	32.09 ± 7.25 (n = 4) μmol/g/l	−13	−22	−21	no effect
